According to ChEMBL document CHEMBL5241094 (J Med Chem, 2021):
≈ marks a conversion by molar mass, not a printed value.

What was measured:
[1] = Oral bioavailability in C57/BL6 mouse at 30 mg/kg administered as homogeneous suspension in 0.5% methocel/0.25% tween20 in 50 mM acetate buffer (pH 5.5) and measured after 2 hrs by HPLC-MS/MS analysis; type: ADME, organism-based; conditions: in vivo
in vivo [2] = conditions: C57BL/6, mouse, iv, 0.2 mg/kg
in vivo [3] = conditions: C57BL/6, mouse, iv, 0.2 mg/kg; remark: listed apart in the source
physchem = conditions: PBS buffer, pH 7.4

Row | bioavailability [1] | clearance at 2 h (in vivo [2]) | Vd at 2 h (in vivo [3]) | SMILES | solubility at 24 h (physchem)
1 | 45% | 31.7 mL/min/kg | 1.9 L/kg | Cc1cc(C#Cc2ccccc2NS(=O)(=O)c2c(C)ccc3cccnc23)cnc1C(=O)O | 384 µg/mL (≈ 839 µM)
2 |  | 10 mL/min/kg | 0.4 L/kg | CCOc1ccc(S(=O)(=O)Nc2ccccc2C#Cc2ccc(C(=O)O)nc2)c2ncccc12 | 

Row | SMILES | bioavailability [1] | clearance at 2 h (in vivo [2]) | Vd at 2 h (in vivo [3]) | solubility at 24 h (physchem)
3 | COc1ccc(S(=O)(=O)Nc2ccccc2C#Cc2ccc(C(=O)O)nc2)c2ncccc12 |  | 6.67 mL/min/kg | 0.6 L/kg | 445 µg/mL (≈ 968 µM)
